How the values were obtained:
ACAT enzyme [1] = conditions: known drug; cited from earlier work
ACAT enzyme [2] = test: ACAT Inhibition Assay (inhibition of cholesterol esterification in cultured Fu5AH rat hepatoma cells); format: cell-based; set-up: key to Activity: Active: Compounds with ACAT inhibiting activity equal to, or greater than, that of chloropromazine are declared active; conditions: for % Inhib. of Chol. Esterf.: Fu5AH cells, 18 hours; for Activity: compared with chlorpromazine
Source text: A standard in vitro test system designed to identify compounds capable of inhibitory the ACAT enzyme in cultured Fu5AH rat hepatoma cells which was used to test the compounds of this invention, among others, is described hereinbelow.
Since the ACAT enzyme in Fu5AH cells is similar if not identical to the ACAT enzyme in arterial tissue in valuable, warm-blooded animals, including humans, the Fu5AH cell test represents a more efficient, simplified and economical means of screening for ACAT inhibitors than similar assays which depend upon the use of arterial tissue and arterial subfractions as the source of the ACAT enzyme.
For our in vitro test the Fu5AH rat hepatoma cell line was selected as our source of the ACAT enzyme since this particular cell line mimicked important characteristics of human and valuable animal arterial cells during the development of atherosclerosis. The Fu5AH cells accumulate cholesterol extensively when incubated with hyperlipemic plasma proteins; more importantly, Fu5HA cells accumulated the cholesterol predominantly as the esterified form through the action of the ACAT enzyme. See Rothblat, G. H., "Cholesteryl Ester Metabolism in Tissue Culture Cell. I. Accumulation in Fu5AH Rat Hepatoma Cells", Lipids, 9, (1974) page 526.
The Fu5AH cells used in our in vitro assay were first acquired from G. H. Rothblat, supra, of the Medical College of Pa.
The Fu5AH rat hepatoma cell-line was derived from the Reuber H-35 rat hepatoma. (See Reuber, M.D., "A Transplantable Bilesecreting Hepatocellular Carcinoa in the Rat", J. Natl., Cancer Inst., 26 (1961), page 891. The cell-line is maintained in Eagle's Minimal Essential Medium (MEM, GiBCO) supplemented with 5% bovine fetal calf serum. Incubation is at 36° C. in an atmosphere of 5% CO2 in air (Hotpack, Model 351922). Cells from stock cultures, grown to confluency in 25 cm^2 flasks (Falcon) containing 10 ml. medium, are detached with 0.25% trypsin in 1% ethylenediaminetetraacetic acid (EDTA) (Gibco), diluted 1:10 with MEM and mixed by agitation through a pipette which serves to disrupt the cellular clumps. Stock cultures are replenished with fresh medium at 3 to 4 day intervals.
One ml. aliquots of the diluted stock suspension described above are then transferred to 60 mm. dishes (Falcon) containing four ml. MEM and the seeded cells are allowed to grow to confluence (three days). At confluence, the medium is removed by aspiration and the cells are washed once with MEM. Five ml. of MEM supplemented with 5% hyperlipemic rabbit serum (HRS) (HRS is obtained from male New Zealane rabbits fed Purina Chow® rabbit feed supplemented with 1% cholesterol and 3% peanut oil (w/w/w/) for two to three weeks. Pooled sera from two or more rabbits are filtered through a 0.45 mμ filter (Nalgene) and stored frozen in convenient aliquots until used) and containing 1μ Ci/ml of ^3 H-cholesterol are then added to the dishes as the experimental (assay) medium. The experimental medium is labeled with 1,2-^3 H(N)-cholesterol (sp. act. approx. 40-60 Ci/mol, New Zealand Nuclear Corp.) prior to its addition to the confluent cultures and is prepared as follows. Five ml. of HRS is diluted with approximately 20 ml of MEM and the mixture is labeled by the addition of 100 μCi ^3 H-cholesterol dissolved in 100 μl absolute ethyl alcohol. The resulting mixture is then incubated for four hours at 36° C. to permit equilibration of the labeled cholesterol with the serum lipoprotein-cholesterol. After the equilibration period, the mixture is diluted to 100 ml. with MEM and used as the labeled assay medium. Following the addition of the labeled medium to the dishes, dimethylsulfoxide solutions of the test substances and the positive standard chloropromazine HCl (1 mg/ml) are added to the cultures in volumes of 25, 50, […]; control cultures receive equivalent volumes of dimethylsufoxide alone. […]

Row | Compound | ACAT enzyme inhibition (in words) (ACAT enzyme [1]) | activity in the ACAT enzyme screen (in words) (ACAT enzyme [2]; starting material) | % Inhib. of Chol. Esterf. (ACAT enzyme [2]; 5.0 ug/ml) | Activity (ACAT enzyme [2]; 5.0 ug/ml) | % Inhib. of Chol. Esterf. (ACAT enzyme [2]; 10.0 ug/ml) | Activity (ACAT enzyme [2]; 10.0 ug/ml) | % Inhib. of Chol. Esterf. (ACAT enzyme [2]; 15.0 ug/ml) | Activity (ACAT enzyme [2]; 15.0 ug/ml) | % Inhib. of Chol. Esterf. (ACAT enzyme [2]; 25.0 ug/ml (so in the source)) | Activity (ACAT enzyme [2]; 25.0 ug/ml (so in the source))
1 | CC(C)NC[C@H](O)COc1cccc2ccccc12 (racemic) [propanolol] | ACAT enzyme inhibiting activity | – | – | – | – | – | – | – | – | –
2 | O=C1c2[nH]c3cc(-c4ccccc4)nn3c(=O)c2CN1C1CCCCC1 [6-Cyclohexyl-4,7-dihydro-2-phenyl-5H-pyrazolo[1,5-a]pyrrolo[3,4-d]pyrimidine-5,8(6H)-dione, reference compound] | – | inactive | – | – | – | – | – | – | – | –
3 | CCCCCCn1c2c(c(=O)n3nc(-c4ccccc4)cc13)CN(C1CCCCC1)C2=O [Example 3, 6-Cyclohexyl-6,7-dihydro-4-hexyl-2-phenyl-4H-pyrazolo[1,5-a]pyrrolo[3,4-d]pyrimidine-5,8-dione] | – | – | 43.4% | Active | 48.2% | Active | 49.2% | Active | – | –
4 | CCOc1ccc(-c2cc3n(Cc4ccccc4)c4c(c(=O)n3n2)CN(C2CCCCC2)C4=O)cc1 [Example 6, 6-Cyclohexyl-6,7-dihydro-2-(4-ethoxyphenyl)-4-(phenylmethyl)-(4H)-pyrazolo[1,5-a]pyrrolo[3,4-d]pyrimidine-5,8-dione] | – | – | 49.8% | Active | 75.4% | Active | 87.2% | Active | – | –
5 | O=C1c2c(c(=O)n3nc(-c4ccccc4)cc3n2Cc2ccccc2)CN1c1ccccc1 [Example 7, 6,7-Dihydro-2,6-diphenyl-4-(phenylmethyl)-4H-pyrazolo[1,5-a]pyrrolo[3,4-d]-pyrimidine-5,8-dione] | – | – | 21.2% | Active | 17.6% | Inactive | 15.0% | Inactive | – | –
6 | O=C1c2c(c(=O)n3nc(-c4ccccc4)cc3n2Cc2ccccc2)CN1Cc1ccccc1 [Example 8, 4,6-Bis(phenylmethyl)-6,7-dihydro-2-phenyl-4H-pyrazolo[1,5-a]pyrrolo[3,4-d]pyrimidine-5,8-dione] | – | – | 60.8% | Active | 89.5% | Active | 92.3% | Active | – | –
7 | O=C1c2c(c(=O)n3nc(-c4ccccc4)cc3n2Cc2ccccc2)CCN1C1CCCCC1 [Example 9, 6-Cyclohexyl-2-phenyl-4-(phenylmethyl)-5,6,7,8-tetrahydro-4H-pyrazolo[1,5-a]pyrido[3,4-d]pyrimidine-5,9-dione] | – | – | 53.2% | Active | 82.1% | Active | 89.8% | Active | – | –
8 | O=C1c2c(c(=O)n3ncc(-c4ccccc4)c3n2Cc2ccccc2)CN1C1CCCCC1 [Example 10, 6-Cyclohexyl-6,7-dihydro-3-phenyl-4-(phenylmethyl)-4H-pyrazolo-[1,5-a]pyrrolo[3,4-d]-pyrimidine-5,8-dione] | – | – | 34.4% | Active | 20.9% | Inactive | 9.1% | Inactive | – | –
9 | O=C(Cn1c2c(c(=O)n3nc(-c4ccc(Cl)cc4)cc13)CN(C1CCCCC1)C2=O)c1ccccc1 [Example 11, 4-(Benzoylmethyl)-2-(4-chlorophenyl)-6-cyclohexyl-6,7-dihydro-4H-pyrazolo[1,5-a]pyrrolo[3,4-d]pyrimidine-5,8-dione] | – | – | 78.2% | Active | 84.5% | Active | – | – | 89.2% | Active
10 | O=C1c2c(c(=O)n3nc(-c4ccccc4)cc3n2CC(O)c2ccccc2)CN1C1CCCCC1 (stereo not drawn) [Example 14, 6-Cyclohexyl-6,7-dihydro-4-(2-hydroxy-2-phenylethyl)-2-phenyl-4H-oyrazolo[1,5-a] pyrrolo[3,4-d]pyrimidine-5,8-dione] | – | – | 49.6% | Active | 65.9% | Active | 40.2% | Inactive | – | –
11 | C=CCOc1ccc(-c2cc3n(Cc4ccccc4)c4c(c(=O)n3n2)CN(C2CCCCC2)C4=O)cc1 [Example 15, 6-Cyclohexyl-6,7-dihydro-2-[4-(2-propenyloxy)phenyl]-4-phenylmethyl-4H-pyrazolo[1,5-a]pyrrolo[3,4-d]pyrimidine-5,8-dione] | – | – | 36.0% | Active | 65.3% | Active | 84.3% | Active | – | –
12 | O=C1c2c(c(=O)n3nc(-c4ccc(O)cc4)cc3n2Cc2ccccc2)CN1C1CCCCC1 [Example 16, 6-Cyclohexyl-6,7-dihydro-2-(4-hydroxyphenyl)-4-phenyl-methyl-4H-pyrazolo[1,5-a]pyrrolo[3,4-d]pyrimidine-5,8-dione] | – | – | 4.3% | Inactive | 32.7% | Inactive | 66.5% | Active | – | –
13 | CN1C(=O)CN=C(c2ccccc2)c2cc(Cl)ccc21 [diazepam] | ACAT enzyme inhibiting activity | – | – | – | – | – | – | – | – | –
14 | COc1ccc([C@@H]2Sc3ccccc3N(CCN(C)C)C(=O)[C@@H]2OC(C)=O)cc1 [diltiazem] | inhibit the ACAT enzyme | – | – | – | – | – | – | – | – | –
15 | COC(=O)C1=C(C)NC(C)=C(C(=O)OC)C1c1ccccc1[N+](=O)[O-] [nifedipine] | inhibit the ACAT enzyme | – | – | – | – | – | – | – | – | –
16 | COc1ccc(CCN(C)CCCC(C#N)(c2ccc(OC)c(OC)c2)C(C)C)cc1OC (stereo not drawn) [verapamil] | inhibit the ACAT enzyme | – | – | – | – | – | – | – | – | –
